Assay results taken from patent publication US4554272A, “Substituted quinazolino-1,4-benzodiazepin-6,9-diones and their preparation” (Merck & Co., Inc., priority 1985, dated 1985).

Columns and labels:
CCK receptor (pancreas) = molecular target: T1, CCK receptor (pancreas) (Rattus norvegicus, UniProt P30551); test: CCK Receptor Binding (pancreas); set-up: species or system rat (male Sprague-Dawley); settings: for IC50: rat pancreas membranes, 125I-CCK-33, 37° C., 30 minutes, read-out: I-CCK-8 Pancreas IC50
T1 construct: The whole pancreas of a male Sprague-Dawley rat; from tissue; host or cells: whole pancreas of male Sprague-Dawley rat, washed membrane suspension
T1 sequence (P30551 1-444): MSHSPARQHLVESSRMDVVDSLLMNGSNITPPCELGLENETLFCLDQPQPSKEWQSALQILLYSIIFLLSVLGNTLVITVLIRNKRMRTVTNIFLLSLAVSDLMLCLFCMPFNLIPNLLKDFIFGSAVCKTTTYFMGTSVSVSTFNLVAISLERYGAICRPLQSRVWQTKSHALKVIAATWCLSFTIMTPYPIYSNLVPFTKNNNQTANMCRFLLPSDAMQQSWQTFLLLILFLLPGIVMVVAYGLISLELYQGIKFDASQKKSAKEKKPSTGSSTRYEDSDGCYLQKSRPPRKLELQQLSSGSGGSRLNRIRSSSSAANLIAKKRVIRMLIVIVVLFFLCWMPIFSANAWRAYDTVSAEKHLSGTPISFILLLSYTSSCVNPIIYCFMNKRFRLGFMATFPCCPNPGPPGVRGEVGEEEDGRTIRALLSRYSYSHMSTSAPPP
Text: (§1) Screening of the novel compounds according to the present invention to determine biological activity and obtain an IC50 value for them (in order to identify significant CCK-antagonism) is accomplished using an ^125 I-CCK receptor binding assay and in vitro isolated tissue preparations. These tests involve the following:
CCK Receptor Binding (pancreas) Method
CCK-33 is radiolabeled with ^125 I-Bolton Hunter reagent (2000 Ci/mmole), as described by Sankara et al. (J. Biol. Chem., 254, 9349-9351, 1979). Receptor binding is performed according to Innis and Snyder (Proc. Natl. Acad. Sci., 77, 6917-6921, 1980), with the minor modification of adding the additional protease inhibitors, phenylmethane sulfonyl fluoride and o-phenanthroline, which have no effect on the ^125 I-CCK receptor binding assay.
The whole pancreas of a male Sprague-Dawley rat (200-350 g), which has been sacrificed by decapitation, is dissected free of fat tissue and homogenized in 20 volumes of ice-cold 50 mM Tris HCl (pH 7.7 at 25° C.) with a Brinkman Polytron PT-10. The homogenates are centrifuged at 48,000 g for 10 minutes, then the resulting pellets are resuspended in Tris Buffer, centrifuged as above, and resuspended in 200 volumes of binding assay buffer (50 mM Tris HCl, pH 7.7 at 25° C., 5 mM dithiothreitol, 0.1 mM bacitracin, 1.2 mM phenylmethane sulfonyl fluoride and 0.5 mM o-phenanthroline).
For the binding assay, 25 μl of buffer (for total binding), or unlabeled CCK-8 sulfate sufficient to give a final concentration of 1 μM of CCK-8 (for nonspecific binding), or the compounds of the formula of the compounds according to the instant invention (for determination of antagonism to ^125 I-CCK binding) and 25 μl of ^125 I-CCK-33 (30,000-40,000 cpm), are added to 450 μl of the membrane suspensions in microfuge tubes. All assays are run in duplicate or triplicate, and the reaction mixtures are incubated at 37° C. for 30 minutes and centrifuged in a Beckman Microfuge (4 minutes) immediately after adding 1 ml of ice-cold incubation buffer. The supernatant is aspirated and discarded, and the pellets are counted with a Beckman Gamma 5000.
(§2) Representative formula I compounds listed were tested as CCK-antagonists (in I-CCK-8 pancreas and ^125 I-CCK Brain assays) with results, as tabulated in the following table.

[1] = test system: CCK receptor (brain, cerebral cortex); test: CCK Receptor Binding (brain); set-up: species or system guinea pig (male Hartley); settings: in words, comment on Table 1 (pancreas vs brain); especially vs formula Ia and Example 13
Experimental: as §1
(§3) CCK Receptor Binding (brain) Method
(§4) CCK-33 is radiolabeled and the binding is performed according to the description for the pancreas method, with modifications according to Saito et al., J. Neurochem., 37, 483-490, 1981.
(§5) Male Hartley guinea pigs (300-500 g) are sacrificed by decapitation, and the brains are removed and placed in ice-cold 50 mM Tris HCl (Trizma-7.4) [pH 7.4 at 25° C.]. The cerebral cortex is dissected and used as a receptor source and each gram of fresh guinea pig brain tissue is homogenized in 10 ml of Tris/Trizma buffer with a Brinkman polytron PT-10. The homogenates are centrifuged at 42,000 g for 15 minutes, then the resulting pellets are resuspended in 80 volumes of binding assay buffer (10 mM N-2-hydroxyethyl-piperazine-N'-2-ethanesulfonic acid (HEPES), 5 mM MgCl2, 1 mM ethylene glycol-bis(β-amino-ethyl-ether-N,N'-tetraacetic acid (EGTA), 0.4% BSA and 0.25 mg/ml bacitracin, pH 6.5).
(§6) The remainder of the inding assay method is as described for the pancreas method, except that the reaction mixtures are incubated at 25° C. for 2 hours before […].
as §2

[2] = molecular target: T2, CCK receptor (brain, cerebral cortex) (Cavia porcellus, UniProt H0VZC5); test: CCK Receptor Binding (brain); set-up: species or system guinea pig (male Hartley); settings: guinea pig cerebral cortex; 125I-CCK-33, pH 6.5, 25° C., 2 hours
T2 construct: The cerebral cortex is dissected and used as a receptor source; from tissue; host or cells: cerebral cortex of male Hartley guinea pig, washed membrane suspension
T2 sequence (H0VZC5 1-426): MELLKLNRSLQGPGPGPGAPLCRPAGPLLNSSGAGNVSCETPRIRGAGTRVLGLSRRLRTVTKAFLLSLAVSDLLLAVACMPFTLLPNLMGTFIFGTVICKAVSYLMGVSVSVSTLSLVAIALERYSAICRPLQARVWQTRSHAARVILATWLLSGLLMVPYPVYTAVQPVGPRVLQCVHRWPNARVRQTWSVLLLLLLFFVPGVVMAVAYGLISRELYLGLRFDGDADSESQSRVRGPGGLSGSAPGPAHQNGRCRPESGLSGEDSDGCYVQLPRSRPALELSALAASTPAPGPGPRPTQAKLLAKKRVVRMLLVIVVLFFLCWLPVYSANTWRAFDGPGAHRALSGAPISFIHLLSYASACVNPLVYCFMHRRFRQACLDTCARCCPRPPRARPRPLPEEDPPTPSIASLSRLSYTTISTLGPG
Experimental: as §1, §3, §4, §5, §6, §2

Row | Structure (SMILES) | IC50 (CCK receptor (pancreas)) [µM] | selectivity compared with the other compounds [1] | IC50 [2] [µM] | potency compared with the formula Ia compound (CCK receptor (pancreas); in words, comment on Table 1 (pancreas and brain binding))
1 | CN1C(=O)[C@H](Cc2c[nH]c3ccccc23)n2c(nc3ccccc3c2=O)-c2ccccc21 [Example 19, 5-methyl-7β-[(1H-indol-3-yl)methyl]quinazolino(3,2-D)(1,4)benzodiazepin-6,9(5H,7H)-dione hydrate] | 104 | substantial change in selectivity | 51 | 
2 | O=C1Nc2ccccc2-c2nc3ccccc3c(=O)n2[C@H]1Cc1c[nH]c2ccccc12 [*, 7β-[(1H-indol-3-yl)methyl]quinazoline(3,2-D)(1,4)benzodiazepin-6,9(5H,7H)-dione, reference compound] | 76 |  | 110 | 
3 | O=C1Nc2ccccc2-c2nc3ccccc3c(=O)n2[C@@H]1Cc1c[nH]c2ccccc12 [Example 13, 7α-[(1H-indol-3-yl)methyl]quinazolino(3,2-D)-1,4-benzodiazepin-6,9(5H,7H)-dione hydrate] | 67 |  | 100 | improved
4 | O=C1Cn2c(nc3ccccc3c2=O)-c2ccccc2N1 [Example 15, quinazolino(3,2-D)(1,4)benzodiazepin-6,9(5H,7H)-dione] | 100 |  | 100 | 
5 | O=C1Nc2ccccc2-c2nc3ccccc3c(=O)n2[C@H]1Cc1ccc(O)cc1 [Example 16, 7β-[(4-hydroxyphenyl)methyl]quinazolino(3,2-D)(1,4)-benzodiazepin-6,9(5H,7H)-dione hydrate] | 100 |  | 100 | 
6 | C[C@H]1C(=O)Nc2ccccc2-c2nc3ccccc3c(=O)n21 [Example 14, 7β-methylquinazolino(3,2-D)(1,4)benzodiazepin-6,9-(5H,7H)-dione] | 100 |  | 100 | 
